The source of these data is ChEMBL document CHEMBL1127985, “Synthesis and biological evaluation of new LTA4 analogs” (Bioorg Med Chem Lett, 1994).

One may read the IC50 as the concentration that inhibits the measured activity by half. A lower IC50 goes with greater potency in that assay.

The structures appear in SMILES notation.

For test [1], the species on record is Cavia porcellus. In words: Compound was tested for inhibition of LTD4 induced contraction of guinea pig ileum. In kind it is functional.
For test [2], the species on record is Cavia porcellus. In words: Compound was tested for inhibition of LTD4 induced contraction of guinea pig ileum at a concentration 5E-5 M; NS means No significant effect. Type of test: functional.

The molecule `CCCCC/C=C\C\C=C/C=C/C=C/c1conc1CCCC(=O)OC` registered a concentration for half-maximal inhibition (IC50) in the test listed under Cavia porcellus [1] of 56 µM. Still for that read-out and setting: with `CCCCC/C=C\C\C=C/C=C/C=C/C1CC(CCC(=O)OC)=NO1` (stereo not given) the figure was 95 µM; with `CCCCC/C=C\C\C=C/C=C/C=C/c1conc1CCC(=O)OC`, 60 µM. In the case of `CCCCCCCCCC/C=C/C=C/c1cc(CCC(=O)OC)no1`, the IC50 entry in the test listed under Cavia porcellus [2] is reported as “Not Active”. As to `CCCCC/C=C\C\C=C/C=C/C=C/c1cc(CCC(=O)OC)no1`, the concentration for half-maximal inhibition (IC50) result in the test listed under Cavia porcellus [2] is “Not Active”.
